Measurements from PubChem BioAssay (NCI).
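Step 1: Grow cells in 96-well plates. Step 2: Expose to compound for 48 hours at 5 concentrations. Step 3: Interpolate endpoints linearly; if unreached, use highest concentration. TGI: concentration producing complete growth inhibition.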

What was measured:
Assay in all cases: growth of human tumour cells (NCI), 48 h
[1] = test system: 786-0 renal
[2] = test system: A498 renal
[3] = test system: A549 NSCLC
[4] = test system: ACHN renal
[5] = test system: BT-549 breast
[6] = test system: CAKI-1 renal
[7] = test system: CCRF-CEM leukemia
[8] = test system: COLO 205 colon
[9] = test system: DU-145 prostate
[10] = test system: EKVX NSCLC
[11] = test system: HCC-2998 colon
[12] = test system: HCT-116 colon
[13] = test system: HCT-15 colon
[14] = test system: HL-60(TB) leukemia
[15] = test system: HOP-62 NSCLC
[16] = test system: HOP-92 NSCLC
[17] = test system: HS 578T breast
[18] = test system: HT29 colon
[19] = test system: IGROV1 ovarian
[20] = test system: K-562 leukemia
[21] = test system: KM12 colon
[22] = test system: LOX IMVI melanoma
[23] = test system: M14 melanoma
[24] = test system: MALME-3M melanoma
[25] = test system: MCF7 breast
[26] = test system: MDA-MB-231 breast
[27] = test system: MDA-MB-435
[28] = test system: MDA-N
[29] = test system: MOLT-4 leukemia
[30] = test system: NCI-H226 lung
[31] = test system: NCI-H23 lung
[32] = test system: NCI-H460 lung
[33] = test system: NCI-H522 lung
[34] = test system: NCI/ADR-RES ovarian
[35] = test system: OVCAR-3 ovarian
[36] = test system: OVCAR-4 ovarian
[37] = test system: OVCAR-5 ovarian
[38] = test system: OVCAR-8 ovarian
[39] = test system: PC-3 prostate
[40] = test system: RPMI-8226 leukemia
[41] = test system: RXF 393 renal
[42] = test system: SF-268 CNS
[43] = test system: SF-295 CNS
[44] = test system: SK-MEL-2 melanoma
[45] = test system: SK-MEL-28 melanoma
[46] = test system: SK-MEL-5 melanoma
[47] = test system: SK-OV-3 ovarian
[48] = test system: SNB-19 CNS
[49] = test system: SNB-75 CNS
[50] = test system: SR leukemia
[51] = test system: SW-620 colon
[52] = test system: TK-10 renal
[53] = test system: U251 CNS
[54] = test system: UACC-257 melanoma
[55] = test system: UACC-62 melanoma
[56] = test system: UO-31 renal
[57] = test system: SF-539 CNS
[58] = test system: SN12C renal

## C[C@]12CC[C@@H]3c4ccc(OC(=O)c5ccccc5)cc4CC[C@H]3[C@@H]1CC[C@@H]2Oc1c2ccccc2nc2ccccc12
[1]
  TGI: 14.3 µM
[2]
  TGI: > 50 µM
[3]
  TGI: 13.2 µM
[4]
  TGI: > 50 µM
[5]
  TGI: 25.1 µM
[6]
  TGI: 21.6 µM
[7]
  TGI: 21.2 µM
[8]
  TGI: > 50 µM
[9]
  TGI: 20.3 µM
[10]
  TGI: 8.96 µM
[11]
  TGI: 16.9 µM
[12]
  TGI: 18 µM
[13]
  TGI: 31.5 µM
[14]
  TGI: 40.4 µM
[15]
  TGI: 15.7 µM
[16]
  TGI: 36.9 µM
[17]
  TGI: > 50 µM
[18]
  TGI: 12.6 µM
[19]
  TGI: 42.4 µM
[20]
  TGI: 17.8 µM
[21]
  TGI: 44 µM
[22]
  TGI: 15.6 µM
[23]
  TGI: 15.9 µM
[24]
  TGI: 21.6 µM
[25]
  TGI: 46.3 µM
[26]
  TGI: 35.2 µM
[27]
  TGI: 12.9 µM
[28]
  TGI: 11.6 µM
[29]
  TGI: 26.7 µM
[30]
  TGI: 48 µM
[31]
  TGI: > 50 µM
[32]
  TGI: 17.1 µM
[33]
  TGI: 46 µM
[34]
  TGI: > 50 µM
[35]
  TGI: 14.8 µM
[36]
  TGI: > 50 µM
[37]
  TGI: > 50 µM
[38]
  TGI: 45 µM
[39]
  TGI: 17.7 µM
[40]
  TGI: 18.1 µM
[41]
  TGI: 15.8 µM
[42]
  TGI: 20.8 µM
[43]
  TGI: > 50 µM
[44]
  TGI: > 50 µM
[45]
  TGI: 22.3 µM
[46]
  TGI: 18.5 µM
[47]
  TGI: > 50 µM
[48]
  TGI: 15.5 µM
[49]
  TGI: 18.2 µM
[50]
  TGI: > 50 µM
[51]
  TGI: > 50 µM
[52]
  TGI: > 50 µM
[53]
  TGI: 15.4 µM
[54]
  TGI: 38.6 µM
[55]
  TGI: > 50 µM
[56]
  TGI: > 50 µM

## Cc1ccc(S(=O)(=O)N=Nc2c(O)[nH]c3c(Cl)cc(Cl)cc23)cc1
[1]
  TGI: > 100 µM
[2]
  TGI: > 100 µM
[3]
  TGI: > 100 µM
[4]
  TGI: > 100 µM
[5]
  TGI: > 100 µM
[6]
  TGI: > 100 µM
[7]
  TGI: > 100 µM
[8]
  TGI: > 100 µM
[10]
  TGI: > 100 µM
[11]
  TGI: > 100 µM
[12]
  TGI: > 100 µM
[13]
  TGI: > 100 µM
[14]
  TGI: > 100 µM
[15]
  TGI: > 100 µM
[16]
  TGI: > 100 µM
[17]
  TGI: > 100 µM
[18]
  TGI: > 100 µM
[19]
  TGI: > 100 µM
[20]
  TGI: > 100 µM
[21]
  TGI: > 100 µM
[22]
  TGI: > 100 µM
[23]
  TGI: > 100 µM
[24]
  TGI: > 100 µM
[25]
  TGI: > 100 µM
[26]
  TGI: > 100 µM
[27]
  TGI: > 100 µM
[28]
  TGI: > 100 µM
[29]
  TGI: > 100 µM
[30]
  TGI: > 100 µM
[31]
  TGI: > 100 µM
[32]
  TGI: > 100 µM
[34]
  TGI: > 100 µM
[35]
  TGI: > 100 µM
[36]
  TGI: > 100 µM
[37]
  TGI: > 100 µM
[38]
  TGI: > 100 µM
[39]
  TGI: > 100 µM
[41]
  TGI: > 100 µM
[43]
  TGI: > 100 µM
[57]
  TGI: > 100 µM
[44]
  TGI: > 100 µM
[45]
  TGI: > 100 µM
[46]
  TGI: > 100 µM
[47]
  TGI: > 100 µM
[58]
  TGI: > 100 µM
[48]
  TGI: > 100 µM
[50]
  TGI: > 100 µM
[51]
  TGI: > 100 µM
[52]
  TGI: > 100 µM
[53]
  TGI: > 100 µM
[54]
  TGI: > 100 µM
[55]
  TGI: > 100 µM
[56]
  TGI: > 100 µM
